# Data from PMC10967832, “Cloflucarban Illuminates Specificity and Context-Dependent Activation of the PINK1–Parkin Pathway by Mitochondrial Complex Inhibition” (Biomolecules, 2024).
# Molecular target: T1, mitochondrial complex I (Bos taurus, UniProt P03887+P17694+P25708+P42026)
# T1 construct: gene MT-ND1; native complex immunocaptured from solubilized bovine heart mitochondria
# Experiment: NADH oxidation, […] nm, immunocaptured complex
# Type: biochemical
# Settings: ubiquinone 1, phospholipids, room temperature
row,SMILES,% activity relative to vehicle at 50 μM
1,Cc1nc(-c2ccc(-c3ccc(C(=O)N4CCc5cc6c(cc54)C4(CCN(C)CC4)CO6)cc3)c(C)c2)no1 [SB-224289],60%
2,CO/C(=C/C(N)=O)[C@H](C)[C@H](/C=C/c1csc(-c2csc([C@@H](C)/C=C/C=C/C(C)C)n2)n1)OC [myxothiazole],48%
